The results in this text go back to ChEMBL document CHEMBL5678818, “Discovery of potent SOS1 inhibitors that block RAS activation via disruption of the RAS-SOS1 interaction” (Proc Natl Acad Sci U S A, 2019).

Test [1] deals with Casein kinase I isoform gamma-2 (Homo sapiens) (UniProt P78368). The test is described as follows: Inhibition of CSNK1G2 (unknown origin) assessed as residual activity at 1000 nM by KINOMEscan analysis relative to control.
Test [2] addresses Tyrosine-protein kinase Lyn (Homo sapiens) (UniProt P07948). The test is described as follows: Inhibition of LYN (unknown origin) assessed as residual activity at 1000 nM by KINOMEscan analysis relative to control.
For test [3], the target named is T1, Rhodopsin kinase GRK1 (Homo sapiens) (UniProt Q15835).
T1 sequence (whole entry): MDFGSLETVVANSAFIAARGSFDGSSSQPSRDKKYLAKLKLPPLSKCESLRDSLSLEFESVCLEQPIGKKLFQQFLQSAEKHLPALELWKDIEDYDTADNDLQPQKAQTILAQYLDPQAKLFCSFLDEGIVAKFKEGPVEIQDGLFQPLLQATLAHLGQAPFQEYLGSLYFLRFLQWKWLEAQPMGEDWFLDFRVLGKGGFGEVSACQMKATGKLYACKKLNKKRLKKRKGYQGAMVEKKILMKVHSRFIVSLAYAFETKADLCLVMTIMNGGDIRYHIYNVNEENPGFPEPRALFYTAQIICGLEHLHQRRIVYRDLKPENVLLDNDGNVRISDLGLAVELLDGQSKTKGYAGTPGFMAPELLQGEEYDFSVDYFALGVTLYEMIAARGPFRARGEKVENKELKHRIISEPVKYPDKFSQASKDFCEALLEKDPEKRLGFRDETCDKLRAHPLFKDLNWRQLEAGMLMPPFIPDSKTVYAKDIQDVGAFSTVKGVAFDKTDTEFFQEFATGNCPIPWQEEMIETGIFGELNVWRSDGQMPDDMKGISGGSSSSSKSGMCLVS
The test is described as follows: Inhibition of GRK1 (unknown origin) assessed as residual activity at 1000 nM by KINOMEscan analysis relative to control.

Test [4] deals with T2, Protein kinase C iota type (Homo sapiens) (UniProt P41743).
T2 sequence (whole entry): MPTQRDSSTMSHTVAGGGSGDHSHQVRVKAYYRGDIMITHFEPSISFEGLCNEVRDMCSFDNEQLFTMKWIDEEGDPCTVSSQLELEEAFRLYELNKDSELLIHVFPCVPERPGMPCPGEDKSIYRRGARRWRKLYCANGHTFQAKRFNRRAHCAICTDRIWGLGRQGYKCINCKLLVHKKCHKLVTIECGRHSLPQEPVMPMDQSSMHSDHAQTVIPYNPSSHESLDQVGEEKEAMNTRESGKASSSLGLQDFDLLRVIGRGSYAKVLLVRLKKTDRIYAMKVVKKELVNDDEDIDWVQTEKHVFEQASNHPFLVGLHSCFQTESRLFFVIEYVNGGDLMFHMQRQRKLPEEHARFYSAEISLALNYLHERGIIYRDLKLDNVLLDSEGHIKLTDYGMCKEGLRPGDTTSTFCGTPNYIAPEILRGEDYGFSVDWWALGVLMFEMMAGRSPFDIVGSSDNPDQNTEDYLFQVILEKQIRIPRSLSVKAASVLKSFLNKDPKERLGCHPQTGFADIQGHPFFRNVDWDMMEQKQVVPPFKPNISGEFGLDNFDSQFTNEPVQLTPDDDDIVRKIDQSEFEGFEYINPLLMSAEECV
Put plainly: Inhibition of PRKCI (unknown origin) assessed as residual activity at 1000 nM by KINOMEscan analysis relative to control.

In test [5] the target is BMP-2-inducible protein kinase (Homo sapiens) (UniProt Q9NSY1). The test is described as follows: Inhibition of BIKE (unknown origin) assessed as residual activity at 1000 nM by KINOMEscan analysis relative to control.
Test [6] has as its target Serine/threonine-protein kinase/endoribonuclease IRE1 (Homo sapiens) (UniProt O75460). Put plainly: Inhibition of ERN1 (unknown origin) assessed as residual activity at 1000 nM by KINOMEscan analysis relative to control.
Test [7] concerns the target T3, Cyclin-dependent kinase-like 2 (Homo sapiens) (UniProt Q92772).
T3 sequence (whole entry): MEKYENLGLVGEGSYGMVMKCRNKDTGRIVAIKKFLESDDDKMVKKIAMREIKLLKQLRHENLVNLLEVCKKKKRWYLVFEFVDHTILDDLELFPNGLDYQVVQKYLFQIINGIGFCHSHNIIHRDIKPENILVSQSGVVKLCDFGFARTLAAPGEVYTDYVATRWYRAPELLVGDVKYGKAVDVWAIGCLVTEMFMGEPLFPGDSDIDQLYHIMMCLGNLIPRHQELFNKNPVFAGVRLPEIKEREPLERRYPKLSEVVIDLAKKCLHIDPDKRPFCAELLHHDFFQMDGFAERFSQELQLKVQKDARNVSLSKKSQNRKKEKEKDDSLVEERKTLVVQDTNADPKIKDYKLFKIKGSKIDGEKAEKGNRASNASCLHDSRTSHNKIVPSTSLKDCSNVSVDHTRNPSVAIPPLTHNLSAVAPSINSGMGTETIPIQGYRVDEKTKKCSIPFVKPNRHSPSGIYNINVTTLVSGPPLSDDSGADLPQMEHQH
The test is described as follows: Inhibition of CDKL2 (unknown origin) assessed as residual activity at 1000 nM by KINOMEscan analysis relative to control.

Chain of BMP-2-inducible protein kinase (Homo sapiens) (Q9NSY1 whole entry, looked up): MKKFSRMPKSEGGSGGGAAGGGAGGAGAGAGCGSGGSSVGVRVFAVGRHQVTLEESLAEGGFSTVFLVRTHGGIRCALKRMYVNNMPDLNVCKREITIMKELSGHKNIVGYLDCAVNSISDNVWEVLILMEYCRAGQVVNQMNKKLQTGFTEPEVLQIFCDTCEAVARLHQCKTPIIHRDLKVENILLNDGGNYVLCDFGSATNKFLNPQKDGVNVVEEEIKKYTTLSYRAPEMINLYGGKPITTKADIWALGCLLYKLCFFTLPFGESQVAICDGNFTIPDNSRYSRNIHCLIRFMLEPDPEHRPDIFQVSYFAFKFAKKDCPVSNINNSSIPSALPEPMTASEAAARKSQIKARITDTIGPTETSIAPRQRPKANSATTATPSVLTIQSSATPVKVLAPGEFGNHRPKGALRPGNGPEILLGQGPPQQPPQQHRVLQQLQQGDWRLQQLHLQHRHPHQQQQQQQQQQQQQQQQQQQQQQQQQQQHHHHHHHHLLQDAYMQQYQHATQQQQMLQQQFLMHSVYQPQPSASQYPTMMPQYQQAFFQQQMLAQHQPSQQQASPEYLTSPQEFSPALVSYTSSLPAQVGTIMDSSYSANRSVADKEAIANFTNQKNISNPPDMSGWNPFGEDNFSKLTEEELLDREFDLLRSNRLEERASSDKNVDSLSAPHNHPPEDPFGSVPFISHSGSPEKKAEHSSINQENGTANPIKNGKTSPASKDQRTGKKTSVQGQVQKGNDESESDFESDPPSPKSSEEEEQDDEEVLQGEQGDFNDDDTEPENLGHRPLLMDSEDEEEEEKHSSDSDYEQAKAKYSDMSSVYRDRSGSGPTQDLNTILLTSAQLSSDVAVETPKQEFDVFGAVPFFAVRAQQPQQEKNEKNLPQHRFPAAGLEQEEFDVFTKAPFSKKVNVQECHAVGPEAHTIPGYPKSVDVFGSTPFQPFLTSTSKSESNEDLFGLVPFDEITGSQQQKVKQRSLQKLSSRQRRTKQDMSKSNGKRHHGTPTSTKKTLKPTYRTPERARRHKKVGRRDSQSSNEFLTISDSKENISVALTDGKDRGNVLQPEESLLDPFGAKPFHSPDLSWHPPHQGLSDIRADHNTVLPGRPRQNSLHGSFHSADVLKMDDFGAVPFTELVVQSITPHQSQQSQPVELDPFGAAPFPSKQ
Chain of Serine/threonine-protein kinase/endoribonuclease IRE1 (Homo sapiens) (O75460 19-977 limits assumed): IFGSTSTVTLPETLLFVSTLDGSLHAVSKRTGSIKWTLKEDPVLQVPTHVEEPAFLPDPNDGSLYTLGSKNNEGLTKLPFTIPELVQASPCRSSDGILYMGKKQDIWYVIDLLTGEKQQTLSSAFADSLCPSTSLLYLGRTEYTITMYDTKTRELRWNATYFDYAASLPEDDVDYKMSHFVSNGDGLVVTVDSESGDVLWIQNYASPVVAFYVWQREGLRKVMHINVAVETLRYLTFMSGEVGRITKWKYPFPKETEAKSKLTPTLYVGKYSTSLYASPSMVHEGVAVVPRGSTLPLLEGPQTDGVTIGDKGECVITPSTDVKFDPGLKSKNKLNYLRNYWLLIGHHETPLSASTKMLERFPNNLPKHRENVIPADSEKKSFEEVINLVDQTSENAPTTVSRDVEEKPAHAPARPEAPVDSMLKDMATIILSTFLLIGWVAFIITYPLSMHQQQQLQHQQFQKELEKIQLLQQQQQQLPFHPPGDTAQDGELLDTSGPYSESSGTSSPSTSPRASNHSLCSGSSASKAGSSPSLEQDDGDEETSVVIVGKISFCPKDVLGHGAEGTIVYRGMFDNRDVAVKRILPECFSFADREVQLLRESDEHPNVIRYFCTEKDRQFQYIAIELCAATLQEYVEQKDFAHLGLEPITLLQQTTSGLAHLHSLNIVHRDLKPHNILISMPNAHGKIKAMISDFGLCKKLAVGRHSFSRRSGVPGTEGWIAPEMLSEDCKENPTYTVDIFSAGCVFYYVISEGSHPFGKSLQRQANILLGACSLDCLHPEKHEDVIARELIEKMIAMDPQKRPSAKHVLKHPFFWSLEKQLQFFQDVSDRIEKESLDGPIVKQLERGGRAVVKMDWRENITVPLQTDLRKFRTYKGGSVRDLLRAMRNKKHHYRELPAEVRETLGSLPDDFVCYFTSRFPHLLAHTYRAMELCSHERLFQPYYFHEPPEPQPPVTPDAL
Chain of Tyrosine-protein kinase Lyn (Homo sapiens) (P07948 2-512 limits assumed): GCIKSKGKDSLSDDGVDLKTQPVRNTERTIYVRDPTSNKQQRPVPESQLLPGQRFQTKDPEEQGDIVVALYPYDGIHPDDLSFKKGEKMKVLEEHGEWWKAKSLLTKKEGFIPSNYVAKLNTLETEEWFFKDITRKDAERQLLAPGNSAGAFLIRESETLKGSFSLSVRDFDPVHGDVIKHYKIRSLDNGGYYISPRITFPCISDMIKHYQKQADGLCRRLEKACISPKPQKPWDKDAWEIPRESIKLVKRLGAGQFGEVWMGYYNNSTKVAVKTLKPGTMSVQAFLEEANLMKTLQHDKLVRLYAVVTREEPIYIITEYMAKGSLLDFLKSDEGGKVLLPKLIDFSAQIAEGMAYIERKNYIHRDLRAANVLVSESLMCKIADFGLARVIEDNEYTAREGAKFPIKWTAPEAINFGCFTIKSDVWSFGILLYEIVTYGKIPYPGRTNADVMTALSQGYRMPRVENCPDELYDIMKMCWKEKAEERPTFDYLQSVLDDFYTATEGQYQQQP
Chain of Casein kinase I isoform gamma-2 (Homo sapiens) (P78368 whole entry, looked up, canonical isoform): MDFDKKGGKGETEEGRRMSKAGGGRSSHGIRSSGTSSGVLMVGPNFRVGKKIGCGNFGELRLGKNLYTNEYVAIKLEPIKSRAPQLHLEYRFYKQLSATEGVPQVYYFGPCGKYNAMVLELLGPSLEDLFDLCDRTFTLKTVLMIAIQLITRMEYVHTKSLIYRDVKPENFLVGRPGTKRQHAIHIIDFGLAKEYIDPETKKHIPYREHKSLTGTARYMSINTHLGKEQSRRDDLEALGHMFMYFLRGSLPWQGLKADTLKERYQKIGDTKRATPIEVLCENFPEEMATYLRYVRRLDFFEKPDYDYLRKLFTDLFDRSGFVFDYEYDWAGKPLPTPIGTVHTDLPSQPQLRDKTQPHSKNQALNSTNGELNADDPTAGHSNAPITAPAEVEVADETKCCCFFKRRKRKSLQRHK

On to `COc1cc2nc(C)nc(N[C@H](C)c3cccc(-c4cn[nH]c4)c3)c2cc1OC`, for which the Activity in test [1] turned out to be 100%; in test [2] it was 100%; in test [3], 55%; in test [4], 61%; in test [5], 71%; in test [6], 94%. Further, in test [7], the Activity stood at 81%.

Turning to `COc1cc2ncnc(N[C@H](C)c3cccc4ccccc34)c2cc1OC`, the Activity came out at 100% in test [1]; 91% in test [2]; 94% in test [3]; 100% in test [4]; 100% in test [5]; 92% in test [6]. The Activity in test [7] was found to be 97%.
